Source: patent US20250353873A1, “COMPOUNDS AND METHODS FOR MODULATING APOE EXPRESSION” (Ionis Pharmaceuticals, Inc., priority 2024, published 2025)
Marks after values point to notes of the source that are not given here. Strand notation (5' to 3'): a small letter for the sugar, then the base; units joined by * are phosphorothioate-linked, units joined directly phosphodiester-linked; [ ] holds rarer units or linkages, { } end groups; capitals alone tell only the bases. [ms] = mesyl phosphoramidate linkage; e = 2'-O-(2-methoxyethyl) (MOE); k = constrained ethyl (cEt); [5mC] = 5-methylcytosine; d = 2'-deoxy (DNA)

What was measured:
human APOE RNA [1] = assay: Dose-dependent reduction of human APOE RNA in HepG2 cells, electroporation, 20,000 cells per well, normalized to PPIA (Example 4, Table 11); format: cell-based; details: HepG2 cells, 20,000 cells per well, approximately 24 hours
Method: HepG2 cells plated at a density of 20,000 cells per well were treated by electroporation with various concentrations of modified oligonucleotide as specified in the tables below. […] APOE RNA levels were measured using the human primer probe set RTS3073 (described herein above). APOE RNA levels were normalized to human PPIA. Human PPIA was amplified using human primer probe set mk_cycloA_2nd (forward sequence […], designated herein as SEQ ID NO: 13; reverse sequence […], designated herein as SEQ ID NO: 14; probe sequence […], designated herein as SEQ ID NO: 15). Normalized results are presented in the table below as percent APOE RNA, relative to the amount of APOE RNA in untreated control cells (% UTC). The half maximal inhibitory concentration (IC50) of each modified oligonucleotide was calculated in GraphPad Prism 10 (GraphPad Software, San Diego, CA) and is also presented in the table below.

human APOE RNA [2] = assay: Activity in APOE 1549 knock-in mice, single ICV bolus, 4 weeks (Example 8); format: in vivo; details: n = 6, single ICV bolus 300 μg, 4 weeks
human APOE RNA [3] = assay: Duration of action study in APOE C57BL/6NTac-Apoeem7250 knock-in mice (Example 18); format: in vivo; details: single ICV bolus 300 μg, APOE knock-in mice, normalized to mouse Ppia, relative to PBS
Method: Modified oligonucleotides described above were tested in the APOE C57BL/6NTac-Apoeem7250 knock-in model (described above).
Each mouse received a single intracerebroventricular (ICV) bolus of 300 μg of modified oligonucleotide. A group of 4-6 mice received a single ICV bolus with PBS as a negative control.
Mice were sacrificed at various timepoints as indicated in the table below and RNA was extracted from cortical brain tissue and spinal cord for quantitative real-time RT-PCR analysis of RNA expression of APOE using primer probe set RTS3073 (described herein above). APOE RNA levels were normalized to mouse Ppia. Mouse Ppia was amplified using primer probe set m_cyclo24 (described herein above). Results are presented as percent human APOE RNA relative to the amount of human APOE RNA in PBS treated animals, (% control). Each experiment is identified in separate tables below.

In the case of “Aes^mCeoTeoTesGesGksTdsGdzAdzAdzTds^mCdsTdsTdsTdsAdzTksTksAesAe (eA*e[5mC]eTeT*eG*kG*dT*dG[ms]dA[ms]dA[ms]dT*d[5mC]*dT*dT*dT*dA[ms]kT*kT*eA*eA) [Compound No. 1757576]”, the “APOE RNA (% UTC) 5 nM” value (human APOE RNA [1]; PPIA-normalized, 5 nM) is reported as 78 % UTC, the “APOE RNA (% UTC) 13 nM” value (human APOE RNA [1]; PPIA-normalized, 13 nM) is reported as 74 % UTC and the “APOE RNA (% UTC) 33 nM” value (human APOE RNA [1]; PPIA-normalized, 33 nM) is reported as 70 % UTC. For the same substance, the “APOE RNA (% UTC) 82 nM” value (human APOE RNA [1]; PPIA-normalized, 82 nM) was 56 % UTC, the “APOE RNA (% UTC) 205 nM” value (human APOE RNA [1]; PPIA-normalized, 205 nM) was 41 % UTC and the “APOE RNA (% UTC) 512 nM” value (human APOE RNA [1]; PPIA-normalized, 512 nM) was 25 % UTC. For the same substance, the “APOE RNA (% UTC) 1,280 nM” value (human APOE RNA [1]; PPIA-normalized, 1,280 nM) was 12 % UTC, the “APOE RNA (% UTC) 3,200 nM” value (human APOE RNA [1]; PPIA-normalized, 3,200 nM) was 6 % UTC and the “APOE RNA (% UTC) 8,000 nM” value (human APOE RNA [1]; PPIA-normalized, 8,000 nM) was 3 % UTC. The “APOE RNA (% UTC) 20,000 nM” value (human APOE RNA [1]; PPIA-normalized, 20,000 nM) was 7 % UTC, the IC50 (human APOE RNA [1]; reduction of human APOE RNA, PPIA-normalized) was 90 nM and the “APOE RNA (% control) Cortex” value (human APOE RNA [2]; Cortex) was 26 % control. The “APOE RNA (% control) Spinal Cord” value (human APOE RNA [2]; Spinal Cord) was 17 % control, the “APOE RNA (% control) Cortex” value (human APOE RNA [3]; 196 days post-dose) was 71 % control and the “APOE RNA (% control) Cortex” value (human APOE RNA [3]; 224 days post-dose) was 92‡ % control. The “APOE RNA (% control) Cortex” value (human APOE RNA [3]; 285 days post-dose) was 87 % control, the “APOE RNA (% control) Spinal Cord” value (human APOE RNA [3]; 196 days post-dose) was 28 % control and the “APOE RNA (% control) Spinal Cord” value (human APOE RNA [3]; 224 days post-dose) was 33‡ % control. The “APOE RNA (% control) Spinal Cord” value (human APOE RNA [3]; 285 days post-dose) was 86 % control and the “inflammatory response in human BJAB cells” value (BJAB cells) was “did not induce any inflammatory response”.
